In ChEMBL document CHEMBL1201861, “Genomics of Drug Sensitity in Cancer screening data, Wellcome Trust Sanger Institute”:
pIC50: −log10 of the molar value.

Tests used:
Experiment in all cases: cells
Format in all cases: functional, cell-based
Conditions in all cases: Homo sapiens
SK-NEP-1 = tested on: SK-NEP-1;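 also: growth inhibition of human SK-NEP-1 cells, read out by a cell viability assay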
Description: SANGER: Inhibition of human SK-NEP-1 cell growth in a cell viability assay.

DSH1 = tested on: DSH1;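 also: growth inhibition of human DSH1 cells, measured with a cell viability readout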
Description: SANGER: Inhibition of human DSH1 cell growth in a cell viability assay.

NCI-H1304 = tested on: NCI-H1304;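 also: growth inhibition of the cancer cell line, measured in a cell viability assay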
Description: SANGER: Inhibition of human NCI-H1304 cell growth in a cell viability assay.

DMS-79 = tested on: DMS-79;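 also: growth inhibition measured with a cell viability assay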
Description: SANGER: Inhibition of human DMS-79 cell growth in a cell viability assay.

MS-1 = tested on: MS-1;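 also: growth inhibition of MS-1 cells, read out by cell viability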
Description: SANGER: Inhibition of human MS-1 cell growth in a cell viability assay.

BV-173 = tested on: BV-173
Description: SANGER: Inhibition of human BV-173 cell growth in a cell viability assay.

TE-5 = tested on: TE-5;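 also: inhibition of cell growth, read out by a cell viability assay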
Description: SANGER: Inhibition of human TE-5 cell growth in a cell viability assay.

EM-2 = tested on: EM-2;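 also: growth inhibition of EM-2 cells, read out with a cell viability assay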
Description: SANGER: Inhibition of human EM-2 cell growth in a cell viability assay.

A3-KAW = tested on: A3-KAW;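 also: growth inhibition of human A3-KAW cells, read out with a cell viability assay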
Description: SANGER: Inhibition of human A3-KAW cell growth in a cell viability assay.

KINGS-1 = tested on: KINGS-1;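 also: cell viability assay measuring suppression of KINGS-1 cell growth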
Description: SANGER: Inhibition of human KINGS-1 cell growth in a cell viability assay.

KS-1 = tested on: KS-1;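 also: growth inhibition of KS-1 cells, read out with a cell viability assay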
Description: SANGER: Inhibition of human KS-1 cell growth in a cell viability assay.

LB373-MEL-D = tested on: LB373-MEL-D;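 also: growth inhibition of the cell line, read out in a cell viability assay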
Description: SANGER: Inhibition of human LB373-MEL-D cell growth in a cell viability assay.

MPP-89 = tested on: MPP-89;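 also: growth inhibition of human MPP-89 cells, read out with a cell viability assay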
Description: SANGER: Inhibition of human MPP-89 cell growth in a cell viability assay.

AM-38 = tested on: AM-38;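 also: growth inhibition of AM-38 cells of human origin, read out by a cell viability assay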
Description: SANGER: Inhibition of human AM-38 cell growth in a cell viability assay.

SNU1 = tested on: SNU1;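 also: growth inhibition of human NCI-SNU-1 cells, measured with a cell viability assay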
Description: SANGER: Inhibition of human NCI-SNU-1 cell growth in a cell viability assay.

NCI-H1299 = tested on: NCI-H1299;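 also: growth inhibition of human NCI-H1299 cells, read out by a cell viability assay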
Description: SANGER: Inhibition of human NCI-H1299 cell growth in a cell viability assay.

COR-L88 = tested on: COR-L88;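 also: growth inhibition of COR-L88 cells, read out with a cell viability assay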
Description: SANGER: Inhibition of human COR-L88 cell growth in a cell viability assay.

NCI-H510A = tested on: NCI-H510A;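 also: growth inhibition of NCI-H510A cells, read out with a cell viability assay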
Description: SANGER: Inhibition of human NCI-H510A cell growth in a cell viability assay.

NB13 = tested on: NB13;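 also: cell viability readout measuring growth inhibition of human NB13 cells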
Description: SANGER: Inhibition of human NB13 cell growth in a cell viability assay.

KU812 cell line = tested on: KU812 cell line;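 also: growth inhibition of KU812 cells, read out with a cell viability assay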
Description: SANGER: Inhibition of human KU812 cell growth in a cell viability assay.

LNCaP-Clone-FGC = tested on: LNCaP-Clone-FGC
Description: SANGER: Inhibition of human LNCaP-Clone-FGC cell growth in a cell viability assay.

SNU-5 = tested on: SNU-5;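 also: cell viability readout used to measure growth inhibition in human NCI-SNU-5 cells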
Description: SANGER: Inhibition of human NCI-SNU-5 cell growth in a cell viability assay.

GI-ME-N = tested on: GI-ME-N;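 also: growth inhibition of human GI-ME-N cells, read out with a cell viability assay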
Description: SANGER: Inhibition of human GI-ME-N cell growth in a cell viability assay.

SF-539 = tested on: SF-539;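 also: Read-out is a cell viability assay, with IC50 reflecting inhibition of cell growth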
Description: SANGER: Inhibition of human SF539 cell growth in a cell viability assay.

NCI-H2126 = tested on: NCI-H2126;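 also: growth inhibition of the cancer cell line, determined with a cell viability readout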
Description: SANGER: Inhibition of human NCI-H2126 cell growth in a cell viability assay.

NCI-H747 = tested on: NCI-H747;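 also: growth inhibition of human NCI-H747 cells, read out by a cell viability assay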
Description: SANGER: Inhibition of human NCI-H747 cell growth in a cell viability assay.

KY821 = tested on: KY821;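 also: growth inhibition of human KY821 cells, read out by a cell viability assay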
Description: SANGER: Inhibition of human KY821 cell growth in a cell viability assay.

COLO-800 = tested on: COLO-800;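 also: growth inhibition of COLO-800 cells, read out with a cell viability assay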
Description: SANGER: Inhibition of human COLO-800 cell growth in a cell viability assay.

EW-3 = tested on: EW-3;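 also: cell viability assay read-out, IC50 reflects inhibition of growth of the EW-3 cells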
Description: SANGER: Inhibition of human EW-3 cell growth in a cell viability assay.

NCI-H1648 = tested on: NCI-H1648;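 also: cell viability assay measuring inhibition of NCI-H1648 cell growth, from the Sanger screening data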
Description: SANGER: Inhibition of human NCI-H1648 cell growth in a cell viability assay.

MOLT-16 = tested on: MOLT-16;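 also: growth inhibition of human MOLT-16 cells, read out with a cell viability assay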
Description: SANGER: Inhibition of human MOLT-16 cell growth in a cell viability assay.

HOP-62 = tested on: HOP-62;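 also: cell growth inhibition determined with a viability assay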
Description: SANGER: Inhibition of human HOP-62 cell growth in a cell viability assay.

VA-ES-BJ = tested on: VA-ES-BJ;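 also: growth inhibition of the VA-ES-BJ cell line, read out by a cell viability assay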
Description: SANGER: Inhibition of human VA-ES-BJ cell growth in a cell viability assay.

NCI-H82 = tested on: NCI-H82;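 also: growth inhibition of NCI-H82 cells, measured with a cell viability readout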
Description: SANGER: Inhibition of human NCI-H82 cell growth in a cell viability assay.

KALS-1 = tested on: KALS-1;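 also: growth inhibition of KALS-1 cells, determined with a cell viability assay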
Description: SANGER: Inhibition of human KALS-1 cell growth in a cell viability assay.

ALL-PO = tested on: ALL-PO;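 also: growth inhibition of ALL-PO cells, read out by a cell viability assay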
Description: SANGER: Inhibition of human ALL-PO cell growth in a cell viability assay.

8-MG-BA = tested on: 8-MG-BA;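 also: growth inhibition of 8-MG-BA cells, read out with a cell viability assay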
Description: SANGER: Inhibition of human 8-MG-BA cell growth in a cell viability assay.

ES8 = tested on: ES8;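 also: growth inhibition of human ES8 cells, read out with a cell viability assay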
Description: SANGER: Inhibition of human ES8 cell growth in a cell viability assay.

J-RT3-T3-5 = tested on: J-RT3-T3-5;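 also: cell viability assay measuring growth inhibition of human J-RT3-T3-5 cells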
Description: SANGER: Inhibition of human J-RT3-T3-5 cell growth in a cell viability assay.

C8166 = tested on: C8166;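 also: growth inhibition of human C8166 cells measured by a cell viability assay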
Description: SANGER: Inhibition of human C8166 cell growth in a cell viability assay.

HAL-01 = tested on: HAL-01;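 also: growth inhibition of human HAL-01 cells, read out with a cell viability assay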
Description: SANGER: Inhibition of human HAL-01 cell growth in a cell viability assay.

HL-60 = tested on: HL-60;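 also: growth inhibition of human HL-60 cells, read out with a cell viability assay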
Description: SANGER: Inhibition of human HL-60 cell growth in a cell viability assay.

K5 = tested on: K5
Description: SANGER: Inhibition of human K5 cell growth in a cell viability assay.

Becker = tested on: Becker;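 also: growth inhibition of Becker cells, read out with a cell viability assay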
Description: SANGER: Inhibition of human Becker cell growth in a cell viability assay.

NB10 = tested on: NB10;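 also: growth inhibition of NB10 cells, read out by a cell viability assay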
Description: SANGER: Inhibition of human NB10 cell growth in a cell viability assay.

MSTO-211H = tested on: MSTO-211H
Description: SANGER: Inhibition of human MSTO-211H cell growth in a cell viability assay.

SCC-15 = tested on: SCC-15;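 also: growth inhibition of SCC-15 cells, read out with a cell viability assay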
Description: SANGER: Inhibition of human SCC-15 cell growth in a cell viability assay.

JAR = tested on: JAR;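 also: growth inhibition of human JAR cells determined with a cell viability assay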
Description: SANGER: Inhibition of human JAR cell growth in a cell viability assay.

KMOE-2 = tested on: KMOE-2;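 also: growth inhibition of human KMOE-2 cells, read out with a cell viability assay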
Description: SANGER: Inhibition of human KMOE-2 cell growth in a cell viability assay.

IST-MEL1 = tested on: IST-MEL1;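 also: growth inhibition of the cell line, read out with a cell viability assay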
Description: SANGER: Inhibition of human IST-MEL1 cell growth in a cell viability assay.

no-10 = tested on: no-10;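 also: growth inhibition of no-10 cells, read out with a cell viability assay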
Description: SANGER: Inhibition of human no-10 cell growth in a cell viability assay.

OCUB-M = tested on: OCUB-M;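 also: growth inhibition of the cancer cell line, read out through a cell viability assay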
Description: SANGER: Inhibition of human OCUB-M cell growth in a cell viability assay.

D-263MG = tested on: D-263MG
Description: SANGER: Inhibition of human D-263MG cell growth in a cell viability assay.

MOLT-4 = tested on: MOLT-4;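 also: growth inhibition of MOLT-4 cells, determined with a cell viability readout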
Description: SANGER: Inhibition of human MOLT-4 cell growth in a cell viability assay.

LB771-HNC = tested on: LB771-HNC
Description: SANGER: Inhibition of human LB771-HNC cell growth in a cell viability assay.

U-266 = tested on: U-266
Description: SANGER: Inhibition of human U-266 cell growth in a cell viability assay.

GR-ST = tested on: GR-ST
Description: SANGER: Inhibition of human GR-ST cell growth in a cell viability assay.

OS-RC-2 = tested on: OS-RC-2
Description: SANGER: Inhibition of human OS-RC-2 cell growth in a cell viability assay.

SK-UT-1 = tested on: SK-UT-1
Description: SANGER: Inhibition of human SK-UT-1 cell growth in a cell viability assay.

TE-9 = tested on: TE-9
Description: SANGER: Inhibition of human TE-9 cell growth in a cell viability assay.

NCI-H1650 = tested on: NCI-H1650
Description: SANGER: Inhibition of human NCI-H1650 cell growth in a cell viability assay.

GAK = tested on: GAK
Description: SANGER: Inhibition of human GAK cell growth in a cell viability assay.

HCC2218 = tested on: HCC2218
Description: SANGER: Inhibition of human HCC2218 cell growth in a cell viability assay.

BT-474 = tested on: BT-474
Description: SANGER: Inhibition of human BT-474 cell growth in a cell viability assay.

MHH-NB-11 = tested on: MHH-NB-11
Description: SANGER: Inhibition of human MHH-NB-11 cell growth in a cell viability assay.

MLMA = tested on: MLMA
Description: SANGER: Inhibition of human MLMA cell growth in a cell viability assay.

CC[C@]1(O)C[C@@H]2CN(CCc3c([nH]c4ccccc34)[C@@](C(=O)OC)(c3cc4c(cc3OC)N(C)[C@H]3[C@@](O)(C(=O)OC)[C@H](OC(C)=O)[C@]5(CC)C=CCN6CC[C@]43[C@@H]65)C2)C1 [VINBLASTINE]
pIC50 (SK-NEP-1): 8.82 | pIC50 (DSH1): 7.63 | pIC50 (NCI-H1304): < 7.00 | pIC50 (DMS-79): < 7.00 | pIC50 (MS-1): 7.51 | pIC50 (BV-173): 7.37 | pIC50 (TE-5): 8.21 | pIC50 (EM-2): 8.27 | pIC50 (A3-KAW): 8.36 | pIC50 (KINGS-1): 8.03 | pIC50 (KS-1): 8.10 | pIC50 (LB373-MEL-D): 7.19 | pIC50 (MPP-89): 7.52 | pIC50 (AM-38): 7.43 | pIC50 (SNU1): 8.79 | pIC50 (NCI-H1299): 7.78 | pIC50 (COR-L88): 7.61 | pIC50 (NCI-H510A): 8.56 | pIC50 (NB13): 8.48 | pIC50 (KU812 cell line): 7.77 | pIC50 (LNCaP-Clone-FGC): 8.08 | pIC50 (SNU-5): < 7.00 | pIC50 (GI-ME-N): 8.22 | pIC50 (SF-539): 8.92 | pIC50 (NCI-H2126): 7.59 | pIC50 (NCI-H747): 7.09 | pIC50 (KY821): 8.43 | pIC50 (COLO-800): 8.48 | pIC50 (EW-3): 7.43 | pIC50 (NCI-H1648): 8.26 | pIC50 (MOLT-16): 8.61 | pIC50 (HOP-62): < 7.00 | pIC50 (VA-ES-BJ): 8.49 | pIC50 (NCI-H82): < 7.00 | pIC50 (KALS-1): 8.11 | pIC50 (ALL-PO): 8.28 | pIC50 (8-MG-BA): 8.20 | pIC50 (ES8): 8.49 | pIC50 (J-RT3-T3-5): 9.10 | pIC50 (C8166): 7.57 | pIC50 (HAL-01): < 7.00 | pIC50 (HL-60): 8.36 | pIC50 (K5): 8.33 | pIC50 (Becker): 8.95 | pIC50 (NB10): 8.14 | pIC50 (MSTO-211H): 7.91 | pIC50 (SCC-15): 7.64 | pIC50 (JAR): 9.22 | pIC50 (KMOE-2): 7.68 | pIC50 (IST-MEL1): 8.34 | pIC50 (no-10): < 7.00 | pIC50 (OCUB-M): 8.12 | pIC50 (D-263MG): 8.03 | pIC50 (MOLT-4): 8.41 | pIC50 (LB771-HNC): 8.07 | pIC50 (U-266): 7.97 | pIC50 (GR-ST): 8.12 | pIC50 (OS-RC-2): 7.16 | pIC50 (SK-UT-1): 7.93 | pIC50 (TE-9): 8.37 | pIC50 (NCI-H1650): < 7.00 | pIC50 (GAK): < 7.00 | pIC50 (HCC2218): 7.10 | pIC50 (BT-474): 7.03 | pIC50 (MHH-NB-11): 7.41 | pIC50 (MLMA): 8.33

C[C@]1(c2nc3c(C(N)=O)cccc3[nH]2)CCCN1 [VELIPARIB]
pIC50 (SK-NEP-1): < 5.30 | pIC50 (DSH1): < 5.30 | pIC50 (NCI-H1304): < 5.30 | pIC50 (DMS-79): < 5.30 | pIC50 (MS-1): < 5.30 | pIC50 (BV-173): < 5.30 | pIC50 (TE-5): < 5.30 | pIC50 (EM-2): < 5.30 | pIC50 (A3-KAW): < 5.30 | pIC50 (KINGS-1): < 5.30 | pIC50 (KS-1): < 5.30 | pIC50 (LB373-MEL-D): < 5.30 | pIC50 (MPP-89): < 5.30 | pIC50 (AM-38): < 5.30 | pIC50 (SNU1): < 5.30 | pIC50 (NCI-H1299): < 5.30 | pIC50 (COR-L88): < 5.30 | pIC50 (NCI-H510A): < 5.30 | pIC50 (NB13): < 5.30 | pIC50 (KU812 cell line): < 5.30 | pIC50 (LNCaP-Clone-FGC): < 5.30 | pIC50 (SNU-5): 5.50 | pIC50 (GI-ME-N): < 5.30 | pIC50 (SF-539): < 5.30 | pIC50 (NCI-H2126): < 5.30 | pIC50 (NCI-H747): < 5.30 | pIC50 (KY821): < 5.30 | pIC50 (COLO-800): < 5.30 | pIC50 (EW-3): < 5.30 | pIC50 (NCI-H1648): < 5.30 | pIC50 (MOLT-16): < 5.30 | pIC50 (HOP-62): < 5.30 | pIC50 (VA-ES-BJ): < 5.30 | pIC50 (NCI-H82): < 5.30 | pIC50 (KALS-1): < 5.30 | pIC50 (ALL-PO): < 5.30 | pIC50 (8-MG-BA): < 5.30 | pIC50 (ES8): < 5.30 | pIC50 (J-RT3-T3-5): < 5.30 | pIC50 (C8166): < 5.30 | pIC50 (HAL-01): < 5.30 | pIC50 (HL-60): < 5.30 | pIC50 (K5): < 5.30 | pIC50 (Becker): < 5.30 | pIC50 (NB10): < 5.30 | pIC50 (MSTO-211H): < 5.30 | pIC50 (SCC-15): < 5.30 | pIC50 (JAR): < 5.30 | pIC50 (KMOE-2): < 5.30 | pIC50 (IST-MEL1): < 5.30 | pIC50 (no-10): < 5.30 | pIC50 (OCUB-M): < 5.30 | pIC50 (D-263MG): < 5.30 | pIC50 (MOLT-4): < 5.30 | pIC50 (LB771-HNC): < 5.30 | pIC50 (U-266): < 5.30 | pIC50 (GR-ST): < 5.30 | pIC50 (OS-RC-2): < 5.30 | pIC50 (SK-UT-1): < 5.30 | pIC50 (TE-9): < 5.30 | pIC50 (NCI-H1650): < 5.30 | pIC50 (GAK): < 5.30 | pIC50 (HCC2218): < 5.30 | pIC50 (BT-474): < 5.30 | pIC50 (MHH-NB-11): < 5.30 | pIC50 (MLMA): < 5.30
